Here are results for two compounds from PMC10044445, “Tuning the Anthranilamide Peptidomimetic Design to Selectively Target Planktonic Bacteria and Biofilm” (Antibiotics, 2023).

Converted amounts (≈) assume the structure as drawn. Bounds are passed on as bounds.

The test system of experiment [1] is S. aureus. More on the design: method as in PMID 30070287. The note with it: cited from earlier work.
Experiment [2] deals with E. coli. More on the design: method as in PMID 30070287. The note with it: cited from earlier work.
In a further experiment the test system is MRC-5 human fibroblasts. Further details: method as in PMID 30070287. The following applies: cited from earlier work.
Experiment [3] concerns S. aureus. Put plainly: Minimum inhibitory concentration, broth microdilution (CLSI). Type of experiment: cell-based, Staphylococcus aureus. The note with it: Staphylococcus aureus; broth microdilution in MHB, 18–24 h. How it is done: (§1) The antimicrobial activity of the compounds was evaluated by a broth microdilution assay using the procedure described by CLSI. Briefly, bacteria were grown to mid-log phase in Muller Hinton broth (MHB) with shaking at 120 rpm and incubated at 37 °C for 12–16 h. Following incubation, bacteria were washed three times in PBS pH 7.4 at 3500 g for 10 min. After washing, bacteria were diluted with fresh MHB. The turbidity of the bacterial suspensions was adjusted so that OD660nm was 0.1, which gave 1 × 10^8 CFU/mL, and then further diluted to achieve 5 × 10^5 CFU/mL as a final bacterial concentration. Each compound was diluted (250–3.9 µM) through two-fold dilution. Wells in microtiter plates were loaded with 100 µL of inoculum containing 5 × 10^5 CFU/mL bacteria. Wells without any compound and containing only bacteria were used as negative controls (i.e., no inhibition of growth). Wells with media only were set as blank. The microtiter plate was wrapped with paraffin to prevent evaporation and incubated with shaking at 120 rpm and 37 °C for 18–24 h. After incubation, spectrophotometric readings were taken. The well without any bacterial growth and showing zero spectrophotometric reading was regarded as the MIC of the compounds.
In general terms: Broth dilution looks for growth in wells or tubes with falling amounts of substance.

The test system of experiment [4] is E. coli. Described as above. It counts as cell-based, Escherichia coli. The note with it: Escherichia coli; broth microdilution in MHB, 18–24 h. How it is done:
as §1

The next experiment relates to E. coli K12. The experiment is described as follows: Cytoplasmic membrane permeability (depolarization) assay with DiSC3(5). It counts as cell-based. The note with it: 2× MIC. Here is the method:
(§2) Compounds 13d (series I), 16b (series II), 19a (series III) and 19b (series III) were selected as representative examples of each series with strong antibacterial activities (particularly against S. aureus). As AMPs are known to be membrane-targeting, membrane permeability assays are frequently used to confirm the mode of action of peptidomimetics. In this assay, S. aureus and E. coli were treated with the active compounds in the presence of the membrane potential-sensitive cyanine dye 3,3′-dipropylthiadicarbocyanine iodide (DiSC3(5)). Perturbation of the membrane by the compounds leads to loss of the membrane potential gradient (depolarization), causing the dye to be released into the medium and resulting in an increase in fluorescence intensity.
(§3) The method was adopted from Wu et al. with slight modifications. Bacterial cytoplasmic membrane permeability was determined using membrane potential sensitive dye diSC3-5 (3,3′-dipropylthiadicarbocyanine iodide) which penetrates inside bacterial cells depending on the membrane potential gradient of the cytoplasmic membrane. Bacteria were grown in MHB to mid-log phase by incubating with shaking at 37 °C for 18–24 h. Following incubation, bacteria were washed with 5 mM HEPES containing 20 mM glucose pH 7.2 and resuspended in the same buffer to an OD600 0.05–0.06 which gave 1 × 10^7 CFU/mL. The dye diSC3-5 was added at 4 µM to the bacterial suspension. The suspensions were incubated at room temperature for 1 h in the dark for maximum dye take-up by the bacterial cells. Then, 100 mM KCl was added to balance the K+ outside and inside the bacterial cell to prevent further uptake or outflow of the dye. For Gram-negative bacteria, 0.5 mM EDTA was used to destabilize the lipopolysaccharides-Mg^2+-Ca^2+ complex to help in dye penetration without affecting bacterial growth. A total of 100 µL of bacterial suspension was added to 96-well microtiter plate and with equal volume of antimicrobial compounds. DMSO (20%) was set as a positive control while dye and only bacterial cells were set as a negative control. Fluorescence was measured with a luminescence spectrophotometer at 3 min intervals at an excitation wavelength of 622 nm and an emission wavelength of 670 nm.
(§4) Figure 2 Cytoplasmic membrane depolarization of S. aureus 38 and E. coli K12 by 13d, 16b, 19a, 19b, as assessed by release of the membrane potential-sensitive dye DiSC3(5) measured spectroscopically at λex = 622 nm and λem = 670 nm at 2× MIC concentration. Data are presented as means (±SD) of three independent repeats. 20% DMSO was used as a positive control.

For the next experiment, the system named is S. aureus 38. Described as above. The note with it: 2× MIC. Type of experiment: cell-based. Here is the method:
as §2, §3, §4

The test system of another experiment is S. aureus biofilms. Put plainly: Disruption of established biofilm, crystal violet staining. It counts as cell-based. The following applies: 24 h treatment. Here is the method:
(§5) Bacteria in biofilms are 10–1000 times more resistant to conventional antibiotics than planktonic bacteria. Moreover, biofilms are insensitive to antiseptics and many host immune responses. Since up to 80% of all microbial infections are biofilm-related, an effective antibacterial agent should also be able to disrupt established biofilms to tackle bacterial infections.
(§6) Bacterial cultures (S. aureus and E. coli) were grown in MHB media overnight at 37 °C with shaking at 120 rpm. Cultures were diluted (1:20) in an MHB medium and 200 μL aliquots were dispensed to flat bottom 96-well plate wells (Sarstedt, Mawson Lakes, Australia). Cultures were supplemented with varying concentrations of synthetic compounds dissolved in DMSO. Biofilm was grown in a 96-well plate for 24 h followed by the addition of synthetic compounds and incubated further for 24 h. Plates were sealed with self-adhesive microplate sealers (TopSeal-A, PerkinElmer) to allow air diffusion and to prevent condensation. Biofilms adhered on polystyrene substratum were quantified by crystal violet staining as described previously. The experiment was performed in triplicate.
Figure 4 Disruption of established biofilms of S. aureus after 24 h treatment with 1× to 8× MIC concentrations of compounds 13d, 16b, 19a, 19b. The positive control represents the pre-established biofilms without any compounds. Error bars indicate the standard error of the mean (SEM) of three independent experiments.

A further experiment relates to E. coli biofilms. The description is as above. Type of experiment: cell-based. The following applies: 24 h treatment. Here is the method: as §5, §6
Figure 5 Disruption of established biofilm of E. coli after 24 h treatment with 1× to 8× MIC concentrations of compounds 13d, 16b, 19a, and 19b. The negative control represents pre-established biofilms without any compounds. Error bars indicate the standard error of the mean (SEM) of three independent experiments.

Broadly, the IC50 is the concentration needed to halve the response being measured. Consider `NCCNC(=O)[C@H](Cc1c[nH]c2ccccc12)NC(=O)c1cc(Br)ccc1NC(=O)c1ccc2ccccc2c1` [Compound 12a], for which, in the experiment on S. aureus [1] (Table 2, parent compound), the “MIC S. aureus” value is on record as 3.9 µM (≈ 2.33 µg/mL). Further, the “MIC90 S. aureus” value with S. aureus [1] (value of earlier paper) is 3.9 µM (≈ 2.33 µg/mL). The “MIC E. coli” value with E. coli [2] (Table 2, parent compound) is over 125 µM. For the same compound, in the experiment with E. coli [2] (value of earlier paper), the “MIC90 E. coli” value was over 125 µM. The IC50 in the experiment on MRC-5 human fibroblasts was under 20 µM.
The MIC90 is the lowest concentration that inhibits either 90% of growth or 90% of the strains tested, depending on the study. The low end stands for higher susceptibility, the high end for lower susceptibility. For the compound `COc1cc2ccccc2cc1C(=O)Nc1ccc(Br)cc1C(=O)N[C@@H](Cc1c[nH]c2ccccc12)C(=O)NCCCN` [Compound 13d, (S)-N-(2-((1-((3-aminopropyl)amino)-3-(1H-indol-3-yl)-1-oxopropan-2-yl)carbamoyl)-4-bromophenyl)-3-methoxy-2-naphthamide], the MIC90 amounted to 3.9 µM (≈ 2.51 µg/mL) in the experiment on S. aureus [3] and 62.5 µM (≈ 40.2 µg/mL) with E. coli [4]. The “cytoplasmic membrane depolarization (DiSC3(5) release)” value in the experiment on E. coli K12 and in the experiment on S. aureus 38 was “relatively inactive” each time. Also, the figures for the “disruption of established S. aureus biofilm” value with S. aureus biofilms (4× MIC (15.6 µM)) and in the experiment with S. aureus biofilms (8× MIC (31.2 µM)) were 75% and 99%, respectively. Further, the “disruption of established E. coli biofilm (in words)” value in the experiment on E. coli biofilms (1× to 8× MIC) is on record as “significant disruption”. For the same compound, in the experiment on E. coli biofilms (2× MIC (62.4 µM)), the “disruption of E. coli biofilm mass” value was found to be 59%.
